Results as given in patent US20080233561A1, “Method for Measuring Cytopathic Effect Due to Viral Infection in Cells Using Electric Cell-Substrate Impedance Sensing” (UNIVERSITY OF LOUISVILLE RESEARCH FOUNDATION, INC., priority 2005, published 2008).

Test system: PR8 influenza A virus (influenza/A/PR/8/34 virus)
Assay type: cell-based

Structure (SMILES): Cl.N [NH4Cl, ammonium chloride]
- CPE in influenza-infected cells, observed with ECIS: Inhibition of CPE in influenza-infected cells
